± gives the expanded uncertainty stated by the source.
Experiment: activity coefficient (dimensionless); of the first substance listed, at infinite dilution; xn = mol fraction of the nth substance listed
Details: Liquid, Chromatography, x1 = 0

Row | activity coefficient (318.15 K) | activity coefficient (328.15 K) | activity coefficient (338.15 K) | activity coefficient (348.15 K) | activity coefficient (358.15 K) | activity coefficient (368.15 K) | SMILES | activity coefficient (298.15 K) | activity coefficient (308.15 K)
1 | 1.06 ± 0.04 | 1.08 ± 0.04 | 1.1 ± 0.04 | 1.11 ± 0.04 | 1.13 ± 0.04 | 1.14 ± 0.04 | c1ccsc1 [thiophene] + CCCC[N+]1(C)CCCC1.O=S(=O)([O-])C(F)(F)F | 1.02 ± 0.04 | 1.04 ± 0.04
2 | 0.865 ± 0.032 | 0.83 ± 0.032 | 0.794 ± 0.031 | 0.765 ± 0.031 | 0.739 ± 0.03 | 0.712 ± 0.03 | O [water] + CCCC[N+]1(C)CCCC1.O=S(=O)([O-])C(F)(F)F | – | –

Row | SMILES | activity coefficient (318.15 K) | activity coefficient (328.15 K) | activity coefficient (338.15 K) | activity coefficient (348.15 K) | activity coefficient (358.15 K) | activity coefficient (368.15 K) | activity coefficient (298.15 K) | activity coefficient (308.15 K)
3 | Cc1ccccc1 [toluene] + CCCC[N+]1(C)CCCC1.O=S(=O)([O-])C(F)(F)F | 2.22 ± 0.1 | 2.25 ± 0.1 | 2.27 ± 0.1 | 2.3 ± 0.1 | 2.32 ± 0.1 | 2.35 ± 0.1 | 2.16 ± 0.09 | 2.19 ± 0.1
